Results published in US20110217300A1, “Quinazolinone Compounds and Methods of Use Thereof” (priority 2007, published 2011).

What was measured:
[1] = test system: late-stage solid tumors or hematologic malignancies; experiment: Phase I clinical study, open-label dose escalation, intravenous; type: in vivo, patients
Experimental: An open-label, dose escalation study of intravenous N-(3-amino-propyl)-3-chloro-N—[(R)-1-(7-chloro-4-oxo-3-phenylamino-3,4-dihydro-quinazolin-2-yl)-but-3-ynyl]-2-fluoro-benzamide was performed. The title compound was administered to patients with late-stage solid tumors or hematologic malignancies. […] There were 3-6 patients per cohort.

HEP-3B = experiment: MTS cell viability assay; type: cell-based; settings: Homo sapiens, Hep3B, liver
Experimental: (§1) Cell viability was determined by measuring the activity of dehydrogenase enzymes in metabolically active cells using a tetrazolium compound, MTS. The assay was performed as described in Promega Technical Bulletin No. 169 (CellTiter 96 Aqueous Non-Radioactive Cell Proliferation Assay). Two human cancer cell lines were assayed (see, Table 1). Cells were maintained at 37° C. and 5% CO2 in DMEM media (4.5 g/L glucose) supplemented with 10% heat-inactivated FBS, 10 mM L-glutamine, and 10 mM Hepes pH 7.5. Briefly, cells were seeded in 96-well plates as set forth in Table 1 and incubated for 16-24 hours. Candidate compounds were serially diluted in DMSO, further diluted in cell culture media, and then added to cells (final DMSO concentration of 0.33%). Cells were incubated in the presence of candidate compound for 72 hours. MTS stock solution (MTS 2 gm/L, PMS […] in PBS) was added to the cells (final concentration MTS […] and PMS 7.67 mg/L) and incubated for 4 hours. SDS was added to a final concentration of 1.4% and absorbance at 490 nm was measured within two hours using a plate reader. […] GI50 values were given in Table 2 for the compounds listed. The Compound Numbers in Table 2 correspond to the numbers listed parenthetically in the Example titles. Where multiple measurements were made by different technicians, both values are given.
(§2) Cell viability was determined for N-(3-amino-propyl)-3-chloro-N—[(R)-1-(7-chloro-4-oxo-3-phenylamino-3,4-dihydro-quinazolin-2-yl)-but-3-ynyl]-2-fluoro-benzamide (compound I of Table 2). The cell viability assay of Example 105 was used. GI50 was determined using a variety of cell lines. Cells were plated at 100-5000 cells per well. At least 2 replicates were performed. Where multiple measurements were made by different technicians, both values are given.

BDCM = experiment: MTS cell viability assay; type: cell-based; settings: Lymphoblast
Experimental: as §1, §2

SW780 = experiment: MTS cell viability assay; type: cell-based; settings: Homo sapiens, bladder
Experimental: as §1, §2

U937 = experiment: MTS cell viability assay; type: cell-based; settings: Homo sapiens, U-937, Monocyte Histocytic Lymphoma
Experimental: as §1, §2

Kato III = experiment: MTS cell viability assay; type: cell-based; settings: Homo sapiens, Gastric Carcinoma
Experimental: as §1, §2

NCI-H520 = experiment: MTS cell viability assay; type: cell-based; settings: Homo sapiens, Squamous cell lung carcinoma
Experimental: as §1, §2

CAKI-1 = experiment: MTS cell viability assay; type: cell-based; settings: Homo sapiens, kidney
Experimental: as §1, §2

DU145 = experiment: MTS cell viability assay; type: cell-based; settings: prostate
Experimental: as §1, §2

HCT-15 = experiment: MTS cell viability assay; type: cell-based; settings: Homo sapiens, colon
Experimental: as §1, §2

NCI-H1993 = experiment: MTS cell viability assay; type: cell-based; settings: Lung adenocarcinoma
Experimental: as §1, §2

ASPC-1 = experiment: MTS cell viability assay; type: cell-based; settings: Homo sapiens, ASPC1, pancreas
Experimental: as §1, §2

NCI-H441 = experiment: MTS cell viability assay; type: cell-based; settings: Lung Papillary Adenocarcinoma
Experimental: as §1, §2

MCF-7 = experiment: MTS cell viability assay; type: cell-based; settings: breast
Experimental: as §1, §2

PLC/PRF/5 = experiment: MTS cell viability assay; type: cell-based; settings: Homo sapiens, liver
Experimental: as §1, §2

A375 = experiment: MTS cell viability assay; type: cell-based; settings: skin
Experimental: as §1, §2

SW620 = experiment: MTS cell viability assay; type: cell-based; settings: Homo sapiens, SW-620, Colorectal adenocarcinoma
Experimental: as §1, §2

SKMES-1 = experiment: MTS cell viability assay; type: cell-based; settings: Homo sapiens, SK-MES-1, Squamous cell carcinoma
Experimental: as §1, §2

CFPPAC-1 = experiment: MTS cell viability assay; type: cell-based; settings: Pancreasductal adenocarcinoma, cystic fibrosis
Experimental: as §1, §2

K562 = experiment: MTS cell viability assay; type: cell-based; settings: CML
Experimental: as §1, §2

HT-1080 = experiment: MTS cell viability assay; type: cell-based; settings: Homo sapiens, Fibrosarcoma
Experimental: as §1, §2

KG-1 = experiment: MTS cell viability assay; type: cell-based; settings: Homo sapiens, AML
Experimental: as §1, §2

[2] = patients with the tumor types listed in Table 5

With `C#CC[C@H](c1nc2cc(Cl)ccc2c(=O)n1Nc1ccccc1)N(CCCN)C(=O)c1cccc(Cl)c1F` [Compound 1, N-(3-Amino-propyl)-3-chloro-N—[(R)-1-(7-chloro-4-oxo-3-phenylamino-3,4-dihydro-quinazolin-2-yl)-but-3-ynyl]-2-fluoro-benzamide] the “Duration on Study” value ([1]; Cohort 1, 10 mg/m^2 intravenous, Cholangiocarcinoma (bile duct)) was 24 weeks, the “Duration on Study” value ([1]; Cohort 2, 20 mg/m^2 intravenous, Colorectal cancer) was 17 weeks and the “Duration on Study” value ([1]; Cohort 2, 20 mg/m^2 intravenous, Liposarcoma (soft tissue)) was 24 weeks. The “Duration on Study” value ([1]; Cohort 4, 53 mg/m^2 intravenous, Leiomyosarcoma (smooth muscle)) was 39 weeks, the “Duration on Study” value ([1]; Cohort 5, 70 mg/m^2 intravenous, Carcinoid) was 24 weeks and the “Duration on Study” value ([1]; Cohort 6, 100 mg/m^2 intravenous, Colorectal cancer) was 19 weeks. The “Duration on Study” value ([1]; Cohort 9, 280 mg/m^2 intravenous, Endocervical cancer) was 36 weeks, the “Duration on Study” value ([1]; Cohort 9, 280 mg/m^2 intravenous, Malignant Thymoma, patient still on study (active)) was 24 (active) weeks and the response ([1]; endocervical cancer patient, before withdrawing consent) was “minor response”. The disease course ([1]; leiomyosarcoma patient, stayed on study afterwards) was “tumor progression at cycle 6”, the disease status [1, 2] was “stable diseases for an extended period” and the “time patients stayed on study” value [1, 2] was “greater than 16 weeks”. The GI50 (HEP-3B) was 0.773 µM, the GI50 (BDCM) was 0.207 µM and the GI50 (SW780) was 0.22 µM. For the same molecule, the GI50 (U937) was 0.155 µM, the GI50 (Kato III) was 0.202 µM and the GI50 (NCI-H520) was 0.139 µM. For the same molecule, the GI50 (CAKI-1) was 2.17 µM, the GI50 (DU145; DU145, listed as I) was 0.304 µM and the GI50 (DU145; Homo sapiens, DU-145, DU145) was 0.303 µM. For the same molecule, the GI50 (HCT-15) was 3.02 µM, the GI50 (NCI-H1993; Homo sapiens, NCI-H1993, NCI-H1993) was 2.42 µM and the GI50 (NCI-H1993; NCI-H1993, listed as I) was 1.66 µM. The GI50 (ASPC-1) was 0.549 µM, the GI50 (NCI-H441; Homo sapiens, NCI-H441, NCI-H441) was 3.33 µM and the GI50 (NCI-H441; NCI-H441, listed as I) was 2.25 µM. The GI50 (MCF-7; Homo sapiens, MCF7, MCF-7) was 5.08 µM, the GI50 (MCF-7; MCF-7, listed as I) was 4.83 µM and the GI50 (PLC/PRF/5) was 0.135 µM. It also gave a GI50 (A375; A375, listed as I) of 0.752 µM, a GI50 (A375; Homo sapiens, A-375, A375) of 0.405 µM and a GI50 (SW620) of 0.317 µM. It also gave a GI50 (SKMES-1) of 1 µM, a GI50 (CFPPAC-1) of 2.08 µM and a GI50 (K562; Homo sapiens, K562, K562) of 0.133 µM. It also gave a GI50 (K562; K562, listed as I) of 0.184 µM, a GI50 (HT-1080) of 0.149 µM and a GI50 (KG-1) of 1.73 µM.
